Reference: article PMC6564044, “Exploring E-cadherin-peptidomimetics interaction using NMR and computational studies” (PLoS Computational Biology, 2019)
pKd: −log10 of the molar value. Where two headings read alike, the source gives them in different places. Positions of bridges follow the written chain, without caps; N, C: chain ends.

Experiments:
[1] = test system: wt E-cadherin-EC1-EC2; test: tr-NOESY bound conformation; format: binding, human; settings: presence of E-cadherin
Protocol: (§1) STD–NMR and tr-NOESY spectra were acquired in 20 mM phosphate buffer at pH 7.4 (with 150 mM NaCl and 1 mM CaCl2) and 40 μM EC1-EC2 fragments of E-cadherin. In this condition, a monomeric form is predominant in solution [28]. We performed STD-NMR experiments at 283K, 290K and 298K since lowering the temperature helps to […] the rotational correlation time of the receptor and to increase the effective magnetization transfer. […] Furthermore, we also studied the binding modes of the ligands in the presence of the truncated mutant (E-cadherin-(Val3)-EC1-EC2).
(§2) The spectra were acquired with a Bruker Avance 600 MHz instrument at 283, 290 and 298 K, in a 3 mm NMR tube and in the phosphate buffer previously described (200 μL).
(§3) The interaction between ligands and isolated proteins was detected using trNOESY, trROESY and STD experiments. In trNOESY and trROESY experiments, water suppression was achieved by use of an excitation sculpting pulse sequence. In STD experiments water suppression was achieved by using the WATERGATE 3-9-19 pulse sequence.

[2] = test system: wt E-cadherin-EC1-EC2; test: STD-NMR epitope mapping with wt E-cadherin-EC1-EC2; format: binding, human
Description: STD-NMR is a consolidated technique based on Overhauser effect that is used to study the interactions between small ligands and macromolecules. The method relies on the selective irradiation of the protein, which allows magnetization to be transferred to the bound ligand (which is in great excess in solution compared to the protein concentration). The saturated ligand is displaced in solution due to the binding equilibrium and the observation of the ligand signals in the NMR spectrum provides an indication of the interaction. Those ligand protons that are nearest to the protein are more likely to become highly saturated, and therefore show the strongest signal in the mono-dimensional STD spectrum. Owing to the efficiency of the saturation process, the modulation of the ligand signal intensity is used as an epitope-mapping method to describe the target-ligand interactions. In fact, the intensity of the STD signal (expressed as absolute STD percentage) reflects the proximity of the ligand to the protein surface. Therefore, the group epitope mapping obtained provides information about the nature of the chemical moieties of the ligand that are crucial for molecular recognition in the binding site. We also used the STD amplification factors (STD-AF) to derive the dissociation constant (KD) of the ligand-protein complexes. Moreover, we performed tr-NOESY experiments in order to determine the preferred bound conformation of the ligands.
as §1, §2, §3
(§4) The on-resonance irradiation of the protein was kept at -0.05 ppm. Off-resonance irradiation of the protein was applied at 200 ppm, where no protein signals were visible. Selective presaturation of the protein was achieved by a train of Gauss shaped pulses of 49 ms length each. The total length of the saturation train was 2.94 s.
(§5) All the experiments were conducted with the first two domains (EC1-EC2) of wt E–cadherin (Molecular Weight EC1-EC2 construct = 23 KDa) and with the construct lacking the first two residues (E-cadherin-(Val3)-EC1-EC2), with a ligand-protein ratio of 80:1.
Since calcium ions are important to rigidify the EC1-EC2 linker region in the monomeric protein and considering that the use of phosphate buffer in the presence of CaCl2 may be critical, due to the limited solubility of CaHPO4, we studied the stability of the protein in phosphate buffer. We monitored the chemical shift variation in ^1H-^15N-HSQC experiment using the ^15N-labeled protein for 24 hours and we can confirm that the protein remains in the correct folding.

[3] = test system: E-cadherin-EC1-EC2; settings: mutant EC1-EC2 lacking Asp1-Trp2 (PDB 4ZTE) or intact EC1-EC2 as stated, cited from earlier work
Description: Recently, we reported the first library of small peptidomimetic molecules targeting the strand-swapped dimer interfaces of E- and N-cadherin. These compounds are mimics of the tetrapeptide sequence Asp1-Trp2-Val3-Ile4 (DWVI) of the adhesion arm, modified by replacing the central dipeptide unit (WV) with various scaffolds, all of them bearing a benzyl group that is intended to mimic the indole moiety of Trp2.

[4] = test system: E-cadherin-(Val3)-EC1-EC2; test: STD-NMR epitope mapping with truncated E-cadherin; format: binding, human; settings: for STD epitope with truncated E-cadherin: three temperatures, ligand-protein 80:1
Protocol: as §1, §2, §3, §4, §5

[5] = Free ligand NMR conformational analysis (NOESY, VT-NMR); format: physicochemical; settings: for hydrogen bonding of amide/exchangeable protons: free ligand, VT experiments (compound 1); for NOESY free-state conformation: phosphate buffer, 283 K and 298 K
Protocol: NMR spectroscopy experiments were performed at 283K and 298K on Bruker Avance 400 and 600 MHz spectrometers. All proton and carbon chemical shifts were assigned unambiguously and the assignments are reported in S1–S4 Tables. The NMR experiments were carried out in an aqueous phosphate (20 mM) buffer pH = 7 with 150 mM NaCl and 1 mM CaCl2 in order to observe amide protons with 10% D2O. Two-dimensional experiments (TOCSY, NOESY, ROESY and HSQC) were carried out on samples at a concentration range of 3–6 mM. NOESY experiments were performed with a mixing time of 200 and 700 ms.
In order to obtain clear spectra, the water signal suppression was achieved by using excitation sculpting sequence from Bruker library (DPFGSE, Double Pulse Field Gradient Spin Echo).
The conformations of the peptidomimetics were analysed with respect to hydrogen bonding of amide protons (VT-NMR spectroscopy) and NOE contacts.

[6] = biological target: wt E-cadherin-EC1-EC2; test: KD determination by STD-NMR titration (STD-AF isotherm); format: binding, human; settings: STD-AF vs ligand concentration, two STD measurements per point; 283 K; protein 0.05 mM, ligand 2.0-16.0 mM
Description: STD-NMR is a consolidated technique based on Overhauser effect that is used to study the interactions between small ligands and macromolecules. The method relies on the selective irradiation of the protein, which allows magnetization to be transferred to the bound ligand (which is in great excess in solution compared to the protein concentration). The saturated ligand is displaced in solution due to the binding equilibrium and the observation of the ligand signals in the NMR spectrum provides an indication of the interaction. […] In fact, the intensity of the STD signal (expressed as absolute STD percentage) reflects the proximity of the ligand to the protein surface. […]
In order to evaluate the interaction strength between E-cadherin and compound 1, we acquired a series of STD spectra at variable ligand concentrations. The STD amplification factor (STD-AF) can be calculated by multiplying the observed STD by the molar excess of the ligand over the protein [20, 21, 25–27], so that its values depend on the fraction of bound protein. […]
Supplementary file pcbi.1007041.s004.tif: S3 Fig Variation of STD-AF versus the increase of ligand 1 concentration in presence of E-cadherin interacting protons and the intensities observed are reported in the graph. We measured the KD value of compound 1 (S3 Fig) and 2 in the presence of E-cadherin by STD (for each point we performed two STD measurements). […]

[7] = test system: N-cadherin mediated processes; settings: cited from earlier work
Description: Beside its broad-ranging effects on physiological tissue organization, classical cadherin dysfunction is often correlated with cancer progression and metastasis. Despite Epithelial (E)- to Neural (N-) cadherin switching being considered a molecular hallmark of epithelial to mesenchymal transition of cancer cells, carcinomas and distal metastases often retain E-cadherin expression, as observed for instance in late stage tumors in epithelial ovarian cancer (EOC). In this context, targeting the E-cadherin adhesive interface with small molecules could have a therapeutic a ...

[8] = 283, 290 and 298 K, wt E-cadherin-EC1-EC2
[9] = 283 K, wt E-cadherin-EC1-EC2, ligand-protein 80:1
[10] = 290 K, wt E-cadherin-EC1-EC2, ligand-protein 80:1
[11] = VT-NMR, phosphate 20 mM, pH 7, 10% D2O

CCC(C)C(NC(=O)C1CCC2CCN(Cc3ccccc3)CC(NC(=O)C(N)CC(=O)O)C(=O)N21)C(N)=O.O=C(O)C(F)(F)F (stereo not shown) [compound 2]
tr-NOESY bound conformation / contacts [1]: no long range interactions were detected | absolute STD % of aromatic protons [2, 8]: about 0.2% | absolute STD % of NH19 ([2]; 283 K, 40 μM protein, 20 mM phosphate pH 7.4, 150 mM NaCl, 1 mM CaCl2, ligand-protein 80:1): 2.078% | absolute STD % of C-terminal amidic NH2 [2, 9]: 0.2% | absolute STD % of scaffold H4/H6 [2, 9]: 0.265% | STD signal of scaffold H4 and H6 ([2]; 290 K, wt E-cadherin-EC1-EC2): not detectable | absolute STD % of C-terminal amidic NH2 [2, 10]: 0.463% | absolute STD % of NH19 [2, 10]: 1.441% | protons observable in STD spectrum ([2]; 298 K, wt E-cadherin-EC1-EC2): only the aromatic protons and the amidic NH2 (0.806%) are observable in the STD spectrum | absolute STD % of C-terminal amidic NH2 ([2]; 298 K, wt E-cadherin-EC1-EC2, ligand-protein 80:1): 0.806% | X-ray binding / co-crystallization [3]: attempts to co-crystallize both compounds 1 and 2 with intact E-cadherin-EC1-EC2 did not yield results | STD epitope with truncated E-cadherin ([4]; E-cadherin-(Val3)-EC1-EC2): the only protons that are involved in the interaction are the aromatic ones | hydrogen bonding of amide/exchangeable protons [5]: the exchangeable protons are not involved in intra-molecular hydrogen bond formation | NOESY free-state conformation [5]: did not show any significant long range NOE contact typical of a preferred conformation | pKd [6]: < 1.70

CCC(C)C(NC(=O)CC1NC(=O)C(CNC(=O)C(N)CC(=O)O)N(Cc2ccccc2)C1=O)C(=O)NC(C)(C)C.O=C(O)C(F)(F)F (stereo not shown) [compound 1]
tr-NOESY bound conformation / contacts [1]: in the bound form compound 1 adopts an extended conformation | STD interaction of aromatic moiety [2, 8]: interacts at all the temperatures with similar strength | STD epitope changes (NH10, NH1, Ile NH) ([2]; 290 K, wt E-cadherin-EC1-EC2): NH10 STD signal disappears, NH1 decreases in intensity and the signal of the amidic Ile proton appears | STD epitope, NHIle ([2]; 298 K, wt E-cadherin-EC1-EC2): NHIle signal replaces those of NH1 and NH10 | STD epitope, NH1 and NH10 ([2]; lowest temperature (283 K), wt E-cadherin-EC1-EC2): strong interactions at the lowest temperature | STD interaction of Ile backbone NH ([2]; temperature dependence, wt E-cadherin-EC1-EC2): seems to interact only at a higher temperature | X-ray binding / co-crystallization [3]: binds to a dimeric conformation of E-cadherin, the so-called ‘X-dimer’ | X-ray binding / co-crystallization ([3]; listed as compounds 1): attempts to co-crystallize both compounds 1 and 2 with intact E-cadherin-EC1-EC2 did not yield results | STD epitope with truncated E-cadherin ([4]; E-cadherin-(Val3)-EC1-EC2): only the aromatic protons are able to interact with the protein | binding affinity to truncated vs wt E-cadherin ([4]; E-cadherin-(Val3)-EC1-EC2 vs wt, 283 K): weaker binding affinity | N-terminal Asp amine signal in STD ([4]; lower amount of D2O, E-cadherin-(Val3)-EC1-EC2): the N-terminal amine of the Asp residue of the ligand can be observed | Δδ/ΔT of NH10 ([5]; VT-NMR, phosphate 20 mM, pH 7, 150 mM NaCl, 1 mM CaCl2, 10% D2O): 4.67 ppb*10^3 | Δδ/ΔT of NH1 [5, 11]: 8.33 ppb*10^3 | Δδ/ΔT of NHIle [5, 11]: 7.67 ppb*10^3 | Δδ/ΔT of NHtBu [5, 11]: 7.33 ppb*10^3 | hydrogen bonding of amide/exchangeable protons [5]: NH10 is the only one that could be engaged in an inter-molecular hydrogen bond | NOESY free-state conformation [5]: equilibrium between different conformations | pKd [6]: < 1.70

Ac-CHAVC-NH2 (disulfide 1-5 (inferred)) [ADH-1]
reported activity [7]: anti-angiogenic agent able to cause cell apoptosis
